Reference: the NIST ThermoML archive (doi:10.1016/j.fluid.2006.03.014)
Numbers after ± are expanded uncertainties.

Details: Liquid

CC(C)(N)CO [2-amino-2-methylpropan-1-ol]
vapor or sublimation pressure (373.25 K): 8 ± 0.4 kPa | vapor or sublimation pressure (381.35 K): 12 ± 0.4 kPa | vapor or sublimation pressure (388.05 K): 16 ± 0.4 kPa | vapor or sublimation pressure (393.05 K): 20 ± 0.4 kPa | vapor or sublimation pressure (397.25 K): 24 ± 0.4 kPa | vapor or sublimation pressure (401.05 K): 28 ± 0.5 kPa | vapor or sublimation pressure (404.45 K): 32 ± 0.5 kPa | vapor or sublimation pressure (407.75 K): 36 ± 0.5 kPa | vapor or sublimation pressure (410.35 K): 40 ± 0.5 kPa | vapor or sublimation pressure (412.95 K): 44 ± 0.5 kPa | vapor or sublimation pressure (415.15 K): 48 ± 0.6 kPa | vapor or sublimation pressure (416.65 K): 50.7 ± 0.6 kPa | vapor or sublimation pressure (418.15 K): 53.3 ± 0.6 kPa | vapor or sublimation pressure (419.95 K): 57.3 ± 0.6 kPa | vapor or sublimation pressure (421.85 K): 61.3 ± 0.6 kPa | vapor or sublimation pressure (423.65 K): 65.3 ± 0.6 kPa | vapor or sublimation pressure (424.45 K): 66.7 ± 0.6 kPa | vapor or sublimation pressure (425.55 K): 69.3 ± 0.7 kPa | vapor or sublimation pressure (427.15 K): 73.3 ± 0.7 kPa | vapor or sublimation pressure (429.65 K): 80 ± 0.7 kPa | vapor or sublimation pressure (429.75 K): 80 ± 0.7 kPa | vapor or sublimation pressure (431.85 K): 85.3 ± 0.7 kPa | vapor or sublimation pressure (433.65 K): 90.7 ± 0.8 kPa | vapor or sublimation pressure (435.35 K): 96 ± 0.8 kPa | vapor or sublimation pressure (436.85 K): 101.3 ± 0.9 kPa
